Data reported in publication PMC5376947, “Cytotoxicity of Zardaverine in Embryonal Rhabdomyosarcoma from a Costello Syndrome Patient” (Frontiers in Oncology, 2017).
Where two headings read alike, the source gives them in different places.

What was measured:
PDE4 = settings: PDE 4, read-out: Reported PDE inhibition IC50, cited from earlier work
[1] = system: CS242 ERMS (screening) cells; test: CS242 ERMS (screening) cell viability assay, CellTiter-Glo, 72 h; settings: 72 h, top 18.8, 75 or 93.8 μM, mean ± SD (n = 3)
Experimental: To generate cells optimized for high-throughput screening (HTS), one vial of frozen cells from the CS242 ERMS (initial) master cell bank was thawed in a 37°C water bath for 2 min, diluted by dropwise addition of 10 volumes of PBS, pelleted at 200 × g for 5 min, resuspended in PBS, pelleted, resuspended in medium, and transferred to a T75 flask. Cells were grown to 70% confluence over 27 days, with media changes every 3 days. Cells were then detached by trypsin treatment as described above [see CS242 ERMS (Initial)] and split at 1:20 into T150 flasks, giving 20 individual cultures at passage 7. After growth for a further 27 days with media changes every 3 days, cells reached 70% confluence and were detached and frozen as described above [see CS242 ERMS (Initial)] to give a working cell bank at passage 8.
Cell growth in 384-well plates was assessed daily for 5 days to determine the optimal starting cell number giving progressive growth suitable for a 72-h cell viability assay. One vial of CS242 ERMS cells was thawed from the screening bank and grown in a T75 flask until confluence was >70%, after which cells were detached using trypsin and counted as described above [see CS242 ERMS (Zardaverine Resistant)].
Using an electronic 16-channel pipettor (Finnpipette Novus MCP16), 40 μl of each cell dilution was dispensed into two columns of a TC-treated opaque white 384-well plate, giving a range of 10,000 to 78 cells/well. Columns 1, 2, 23, and 24 were filled with media alone (40 μl/well). Five replicate plates were covered with MicroClime environmental lids (Labcyte) to minimize evaporation and incubated at 37°C, 5% CO2 for 24, 48, 72, 96, and 120 h, respectively. A sixth plate was prepared for determination of cell viability at the time of cell seeding. To determine cell viability, plates were allowed to cool to room temperature for 1 h after removal from 37°C incubation, 20 μl/well of CellTiter-Glo was added using a MicroFlo Select microplate reagent dispenser (BioTek, Winooski, VT, USA), and luminescence was measured after an additional 30 min at room temperature using an EnVision microplate reader (PerkinElmer, Waltham, MA, USA).
The IC50 of dactinomycin was determined using cells passaged once from the CS242 ERMS (screening) cell bank [see CS242 ERMS (Screening)]. Cells were thawed, grown to 70% confluence over 3 days in a T75 flask, detached by trypsin treatment, seeded at 1,250 cells in 30 μl of media/well in 384-well opaque white TC plates, and allowed to attach overnight. […] After 72 h of cell growth in the presence of dactinomycin, 20 μl of CellTiter-Glo was added, and cell viability was determined as described above (see Cell Viability Assay Development). Percent viability was determined from luminescence values using high controls (no dactinomycin) and low controls (media alone; no cells), and IC50 values were calculated using four-parameter dose–response curve fitting analysis in GraphPad Prism.
The 2,000-compound Microsource Spectrum library was screened using a fresh batch of CS242 ERMS (screening) cells for each HTS run, prepared as described above (see Cell Viability Assay Development). […] Media alone was added to low control (background) wells in columns 2 and 24. Plates were covered using MicroClime environmental lids (Labcyte), and cells were allowed to attach overnight (≤12 h) at 37°C in an atmosphere of 5% CO2.
Compounds were delivered to columns 3–22 of assay plates containing attached cells via an intermediate dilution. […] Likewise, DMSO was added to columns 1, 2, 23, and 24 for high and low controls, matching the 0.06% DMSO in the test wells.

[2] = system: glucocorticoid receptor (GR) activation; design: method as in earlier work; settings: 18 h treatment; ref [30]; cited from earlier work
PDE3 = settings: PDE 3, read-out: Reported PDE inhibition IC50, cited from earlier work
[3] = read-out: CS242 ERMS viability IC50, Table 3 PDE inhibitor panel
[4] = Homo sapiens, read-out: CS242 ERMS viability IC50, Table 3 PDE inhibitor panel

(R)-(−)-rolipram
IC50 (PDE4; ref [22]): 220 nM
IC50 [1, 3]: > 18800 nM

CCc1ccc2c(-c3cccc(Cl)c3)nc(=O)n(CC)c2n1 [YM 976, 4-(3-chlorophenyl)-1,7-diethylpyrido[2,3-d]pyrimidin-2(1H)-one]
IC50 (PDE4; ref [18]): 2.2 nM
IC50 [1, 4]: 60700 nM

CN(C(=O)CCCOc1ccc2[nH]c(=O)ccc2c1)C1CCCCC1 [Cilostamide]
activity in GR activation screen, in words [2]: inactive
IC50 (PDE3; ref [19], [20]): 27 nM
IC50 [1, 4]: > 18800 nM

COc1cc2c(cc1OC)-c1c/c(=N\c3c(C)cc(C)cc3C)n(C)c(=O)n1CC2 [Trequinsin]
IC50 (PDE3; ref [16]): 0.25 nM
IC50 [1, 4]: 36500 nM

COc1ccc([C@H](Cc2ccncc2)c2ccccc2)cc1OC1CCCC1 [CDP 840]
IC50 (PDE4; ref [15]): 12 nM
IC50 [1, 4]: 27800 nM

O=C1CCc2cc(OCCCCc3nnnn3C3CCCCC3)ccc2N1 [Cilostazol]
IC50 (PDE3; ref [24]): 200 nM
IC50 [1, 4]: > 93800 nM

O=c1c2cccnc2n(-c2cccc([N+](=O)[O-])c2)c(=O)n1Cc1ccncc1 [RS 25344]
IC50 (PDE4; ref [25]): 0.28 nM
IC50 [1, 3]: > 93800 nM

CCCCOc1cc(CC2CNC(=O)N2)ccc1OC (stereo not shown) [Ro 20-1724]
IC50 (PDE4; ref [23]): 2000 nM
IC50 [1, 3]: > 18800 nM

COc1ccc(C(=O)Nc2c(Cl)cncc2Cl)cc1OC1CCCC1 [Piclamilast]
IC50 (PDE4; ref [17]): 1 nM
IC50 [1, 4]: 55800 nM

CCCn1c(=O)c(C)cn2nc(N)nc12 [ICI 63197]
IC50 (PDE4; ref [26]): 35 nM
IC50 [1, 3]: > 93800 nM

Cc1[nH]c(=O)c(C#N)cc1-c1ccncc1 [Milrinone]
IC50 (PDE3; ref [21]): 56 nM
IC50 [1, 4]: > 18800 nM

CN/C(=N\c1ccc(C2=NNC(=O)CC2C)cc1)NC#N (stereo not shown) [Siguazodan]
IC50 (PDE3; ref [21]): 117 nM
IC50 [1, 4]: > 93800 nM
